Entries after “also recorded” stand apart in the source; their conditions may differ.
What was measured:
[1] = test system: human breast (MDA-MB-231) carcinoma cell line; assay: Cell viability assay in MDA-MB-231 cells; assay type: cell-based
[2] = bFGF- or VEGF-stimulated endothelial cells; cited from earlier work
CRAF = CRAF (Homo sapiens, UniProt P04049); assay: CRAF localization to the mitotic spindle, confocal microscopy of XPA-1 cells; assay type: cell-based; design: total CRAF and total MEK of lysates from XPA-1 cells treated with PD0325901, Sorafenib, L-779450, PLX4720, KG5 or KG1; endogenous in cells; host or cells: XPA-1
Sequence of CRAF (P04049 whole entry): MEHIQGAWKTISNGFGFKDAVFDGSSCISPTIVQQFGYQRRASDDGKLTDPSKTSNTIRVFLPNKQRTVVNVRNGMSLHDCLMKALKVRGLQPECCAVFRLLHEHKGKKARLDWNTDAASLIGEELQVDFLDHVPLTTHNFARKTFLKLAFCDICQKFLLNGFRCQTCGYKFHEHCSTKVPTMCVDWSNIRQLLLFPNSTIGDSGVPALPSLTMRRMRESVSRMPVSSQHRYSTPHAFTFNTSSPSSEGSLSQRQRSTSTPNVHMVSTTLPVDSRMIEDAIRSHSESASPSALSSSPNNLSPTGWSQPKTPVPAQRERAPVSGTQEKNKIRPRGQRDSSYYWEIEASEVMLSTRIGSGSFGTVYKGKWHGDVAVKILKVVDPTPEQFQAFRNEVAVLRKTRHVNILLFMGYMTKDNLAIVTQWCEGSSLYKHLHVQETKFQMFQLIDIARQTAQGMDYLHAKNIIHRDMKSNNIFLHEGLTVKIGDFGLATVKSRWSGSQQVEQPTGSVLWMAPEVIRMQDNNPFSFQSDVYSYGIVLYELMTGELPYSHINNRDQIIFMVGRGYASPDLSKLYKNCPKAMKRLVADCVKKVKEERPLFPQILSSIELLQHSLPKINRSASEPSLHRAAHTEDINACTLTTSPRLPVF
Source text: FIG. 35. […] Data are representative of three independent experiments. FIG. 35 (b) Confocal microscopy images of human pancreatic XPA-1 and glioblastoma U251 cells during mitosis, stained for phospho-5338 CRAF (in green), α-tubulin (in red) and DNA (TOPRO-3™ in blue). Scale bar, 10 μm. White arrows indicate localization of phospho-S338 CRAF at the mitotic spindle. FIG. 35 (c) Immunoblot analysis of γ-tubulin immunoprecipitates from human colon carcinoma HCT-116 cells asynchronized and synchronized at pro-metaphase. Data are representative of three independent experiments. FIG. 35(d) Immunohistochemical staining of phospho-S338 CRAF in tumor biopsies from breast cancer patients. Scale bar, 10 μm. FIG. 35(e) Confocal microscopy images of XPA-1 cells treated with KG5, sorafenib, ZM336372, L779450 or paclitaxel and stained for CRAF (in green), γ-tubulin (in red) and DNA (TOPRO-3™ in blue). Scale bar, 10 μm. White arrows indicate localization of CRAF at the spindle pole. White circle indicates the absence of CRAF at the spindle pole.
Cells attached to cover-slips were fixed with cold methanol and permeabilized in PBS containing 0.1% triton for two minutes and blocked for 60 minutes, at room temperature with 2% BSA in PBS. Cells were stained with antibodies to CRAF (Abcam), phospho-serine 338 CRAF (SantaCruz), phospho-serine 338 CRAF (Thermo Scientific), a tubulin (Calbiochem), γ tubulin (Abcam), laminB (SantaCruz), Plk1 (Abcam), phospho-T210 Plk1 (Abcam), or phospho-T288 Aurora A (cell signaling). All primary antibodies were used at 1:100 dilution, for two hours at room temperature. After washing several times with PBS, cells were stained for two hours at room temperature, with secondary antibody specific for mouse, rabbit or goat (Invitrogen), as appropriate, diluted 1:300 and co-incubated with the DNA dye TOPRO-3™ (1:500) (Invitrogen). Samples were mounted in VECTASHIELD™ hard-set mounting media (Vector Laboratories) and imaged on a Nikon ECLIPSE C1™ confocal microscope with a 1.4 NA 60× oil-immersion lens, using minimum pinhole (30 μm). Images were captured using EZ-C1-3.50 imaging software.

[3] = test system: human breast (T47D) carcinoma cell line; assay: Cell viability assay in T47D cells; assay type: cell-based
[4] = test system: human lung (A549) carcinoma cell line; assay: Cell viability assay in A549 cells; assay type: cell-based
PDGFR = conditions: cited from earlier work
MDA-MB-435 = assay: NCI-60 panel growth inhibition; assay type: cell-based; conditions: Homo sapiens, Melanoma, mutated RAS No, mutated BRAF Yes
Source text: (§1) Table 1 summarizes KG5's effect in 60 NCI cancer cell lines: the NCI-60 panel showing the half maximal growth inhibitory concentration of KG5 and the RAS and BRAF status in 60 human cancer cell lines.

SR = assay: NCI-60 panel growth inhibition; assay type: cell-based; conditions: Homo sapiens, Leukemia, mutated RAS No, mutated BRAF No
Source text: as §1

HCT-15 = assay: NCI-60 panel growth inhibition; assay type: cell-based; conditions: Homo sapiens, Colon Cancer, mutated RAS Yes, mutated BRAF Yes
Source text: as §1

SK-MEL-28 = assay: NCI-60 panel growth inhibition; assay type: cell-based; conditions: Homo sapiens, Melanoma, mutated RAS No, mutated BRAF Yes
Source text: as §1

PKC = conditions: cited from earlier work
PDGFRβ = PDGFRβ (Homo sapiens, UniProt P09619); conditions: in response to PDGF-BB; cited from earlier work
Sequence of PDGFRβ (P09619 33-1106, species assumed): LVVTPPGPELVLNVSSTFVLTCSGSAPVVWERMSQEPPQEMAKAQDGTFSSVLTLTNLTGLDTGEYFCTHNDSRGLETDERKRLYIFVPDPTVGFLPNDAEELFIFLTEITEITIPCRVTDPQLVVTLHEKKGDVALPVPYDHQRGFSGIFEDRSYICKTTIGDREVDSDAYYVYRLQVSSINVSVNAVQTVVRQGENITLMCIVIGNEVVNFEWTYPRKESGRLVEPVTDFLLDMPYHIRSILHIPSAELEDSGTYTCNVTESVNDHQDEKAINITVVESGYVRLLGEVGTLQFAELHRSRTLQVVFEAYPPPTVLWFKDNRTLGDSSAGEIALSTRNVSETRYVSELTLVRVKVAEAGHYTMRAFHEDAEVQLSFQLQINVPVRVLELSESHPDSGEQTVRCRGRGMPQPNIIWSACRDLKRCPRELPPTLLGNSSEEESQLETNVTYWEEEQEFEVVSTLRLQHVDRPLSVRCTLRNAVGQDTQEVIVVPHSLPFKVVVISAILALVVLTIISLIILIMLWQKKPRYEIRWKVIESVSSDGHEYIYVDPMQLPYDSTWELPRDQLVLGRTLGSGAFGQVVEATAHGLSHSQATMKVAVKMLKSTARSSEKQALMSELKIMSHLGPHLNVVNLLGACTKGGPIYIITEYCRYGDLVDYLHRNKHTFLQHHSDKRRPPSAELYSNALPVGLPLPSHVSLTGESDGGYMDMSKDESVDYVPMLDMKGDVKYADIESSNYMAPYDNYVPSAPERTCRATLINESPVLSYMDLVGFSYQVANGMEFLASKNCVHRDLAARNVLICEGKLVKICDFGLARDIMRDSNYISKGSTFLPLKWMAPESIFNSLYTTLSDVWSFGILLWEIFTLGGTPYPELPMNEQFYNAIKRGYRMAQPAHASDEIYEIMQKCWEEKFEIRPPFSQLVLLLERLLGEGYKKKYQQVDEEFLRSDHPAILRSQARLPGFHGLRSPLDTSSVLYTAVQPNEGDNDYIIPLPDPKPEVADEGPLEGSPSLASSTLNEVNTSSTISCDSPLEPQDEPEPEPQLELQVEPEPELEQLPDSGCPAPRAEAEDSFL

c-Kit = c-Kit (Homo sapiens, UniProt P10721); conditions: cited from earlier work
Sequence of c-Kit (P10721 26-976): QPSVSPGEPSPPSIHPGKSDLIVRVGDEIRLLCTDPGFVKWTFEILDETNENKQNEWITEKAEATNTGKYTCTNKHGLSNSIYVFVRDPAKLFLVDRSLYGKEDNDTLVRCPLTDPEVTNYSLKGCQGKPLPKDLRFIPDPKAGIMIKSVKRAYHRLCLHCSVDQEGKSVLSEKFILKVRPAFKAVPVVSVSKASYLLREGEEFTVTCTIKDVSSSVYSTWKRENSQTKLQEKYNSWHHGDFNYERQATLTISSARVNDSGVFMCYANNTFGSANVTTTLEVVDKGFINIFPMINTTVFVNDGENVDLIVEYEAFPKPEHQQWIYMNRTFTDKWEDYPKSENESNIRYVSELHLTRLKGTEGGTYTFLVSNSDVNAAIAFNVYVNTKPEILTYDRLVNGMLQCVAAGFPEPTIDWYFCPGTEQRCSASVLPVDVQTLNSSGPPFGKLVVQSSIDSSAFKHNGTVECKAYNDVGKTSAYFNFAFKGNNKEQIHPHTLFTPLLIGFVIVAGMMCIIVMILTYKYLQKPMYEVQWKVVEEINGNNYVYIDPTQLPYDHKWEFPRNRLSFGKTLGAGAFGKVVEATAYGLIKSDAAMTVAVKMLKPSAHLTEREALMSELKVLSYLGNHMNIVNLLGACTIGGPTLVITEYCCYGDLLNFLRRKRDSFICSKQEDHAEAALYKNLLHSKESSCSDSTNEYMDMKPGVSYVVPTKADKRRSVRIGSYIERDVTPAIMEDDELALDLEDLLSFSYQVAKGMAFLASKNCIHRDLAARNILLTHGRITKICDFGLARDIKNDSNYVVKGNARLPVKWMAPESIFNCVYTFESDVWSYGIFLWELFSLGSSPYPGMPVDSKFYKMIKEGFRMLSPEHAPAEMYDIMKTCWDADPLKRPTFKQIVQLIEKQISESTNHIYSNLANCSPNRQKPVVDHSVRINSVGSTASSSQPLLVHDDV

## CSc1nc(N)cc(Oc2ccc(-c3nnc(Nc4cccc(C(F)(F)F)c4)[nH]3)cc2)n1 [KG5]
[1]; MDA-MB-231
  cell viability: decrease cell viability
[1]; MDA-MB-231 breast cancer cell viability assays
  EC50: approach picomolar (pM) EC50s
[2]
  p-Aid: did not suppress
CRAF
  CRAF localization to the mitotic spindle: prevents CRAF recruitment to the mitotic spindle; also recorded: prevented this localization
  prevents phospho-S338 CRAF recruitment to the mitotic spindle: prevents phospho-S338 CRAF recruitment to the mitotic spindle
[3]; T47D
  cell viability: decrease cell viability
[3]; T47D breast cancer cells
  EC50: approach picomolar (pM) EC50s
[4]; A549
  cell viability: decrease cell viability
[4]; A549 lung cancer cells
  EC50: approach picomolar (pM) EC50s
PDGFR
  inhibition of PDGFR: inhibits
MDA-MB-435
  GI50: 195 nM
SR
  GI50: 398 nM
HCT-15
  GI50: 490 nM
SK-MEL-28
  GI50: 1580 nM
PKC
  PKC: no impact
PDGFRβ
  PDGFRβ autophosphorylation: directly impacts PDGFRβ autophosphorylation
c-Kit
  inhibition of c-Kit: inhibits

— patent US20130266636A1, “METHODS FOR BLOCKING CELL PROLIFERATION AND TREATING DISEASES AND CONDITIONS RESPONSIVE TO CELL GROWTH INHIBITION” (THE REGENTS OF THE UNIVERSITY OF CALIFORNIA, priority 2010, published 2013)
